The target in assay [1] is T1, β2-adrenergic receptor (β2AR) on human neutrophils (Homo sapiens, UniProt P07550).
T1 construct: gene ADRB2; native full-length receptor in intact neutrophils isolated from venous blood or buffy coat of healthy volunteers
The assay can be described thus: cAMP accumulation, HPLC-MS/MS. It is filed as cell-based. The note with it: read-out: cAMP assay (β2AR on neutrophil granulocytes) / pEC50 ± S.E.M. (EC50 in μM) (converted), intact neutrophils, […] IBMX, […] °C.

Assay [2] deals with T1, β2-adrenergic receptor (β2AR) on human neutrophils. The assay can be described thus: inhibition of fMLP-stimulated superoxide production, ferricytochrome c reduction. It is filed as cell-based. The note with it: agonist potency, downstream functional read-out, intact neutrophils, […] fMLP, cytochalasin B, read-out: O2 ^•- assay (β2AR on neutrophil granulocytes) / pIC50 ± S.E.M. (IC50 in μM) (converted). An excerpt: inhibition of fMLP-stimulated superoxide production, ferricytochrome c reduction on β2-adrenergic receptor (β2AR) on human neutrophils

Structures are written as SMILES. Where two headings read alike, the source gives them in different places. Some results are limits rather than exact numbers.

T1 sequence (P07550 whole entry): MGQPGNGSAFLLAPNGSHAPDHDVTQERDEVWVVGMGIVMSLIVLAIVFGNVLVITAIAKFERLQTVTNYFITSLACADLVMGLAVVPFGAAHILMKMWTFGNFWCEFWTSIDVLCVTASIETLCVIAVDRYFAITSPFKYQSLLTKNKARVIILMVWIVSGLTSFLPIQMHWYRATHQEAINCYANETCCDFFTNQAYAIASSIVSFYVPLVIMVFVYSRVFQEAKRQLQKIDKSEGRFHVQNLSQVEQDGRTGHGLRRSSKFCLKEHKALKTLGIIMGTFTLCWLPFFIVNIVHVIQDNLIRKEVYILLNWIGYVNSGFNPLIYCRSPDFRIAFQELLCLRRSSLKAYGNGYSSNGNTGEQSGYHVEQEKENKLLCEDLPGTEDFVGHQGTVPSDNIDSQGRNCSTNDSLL

`CC(C)NCC(O)c1ccc(Cl)c(Cl)c1` (racemic) [DCI, (±)-dichlorisoproterenol]: the EC50 in assay [1] (agonist mode, table prints pEC50 <[…] as ( […]), text: no agonistic activity up to […]) is greater than 100 µM. Moreover, the IC50 in assay [2] was 39.8 µM.
Regarding `CC(CCc1ccc(O)cc1)NCCc1ccc(O)c(O)c1` (racemic) [DOB, (±)-dobutamine], the EC50 in assay [1] (partial agonist) is 13.8 µM.

The values are drawn from PMC3669315, “Dissociations in the Effects of β2-Adrenergic Receptor Agonists on cAMP Formation and Superoxide Production in Human Neutrophils: Support for the Concept of Functional Selectivity” (PLoS ONE, 2013).
